Results: publication PMC10186366 (ACS Pharmacology & Translational Science, 2023)
Where two headings read alike, the source gives them in different places.

Columns and labels:
[1] = system: PC43-10 CHO cells (expresses only human RFC); assay: Cell proliferation assay, PC43-10 CHO subline; format: cell-based, Chinese hamster; conditions: 96 h, up to 1000 nM, 25 nM leucovorin, mean (standard error); for IC50: Homo sapiens, PC43-10
Text: (§1) We used a unique panel of engineered Chinese hamster ovary (CHO) sublines derived from a transporter-null MTXRIIOua^R2-4 CHO subline (R2) and designed to individually express human FRα (RT16), FRβ (D4), RFC (PC43-10), or PCFT (R2/PCFT).[39]−[42] As the CHO sublines are isogenic and differ only in the presence or absence of the human folate transporters, differences in the extent of inhibition of cell proliferation between the cell lines upon treatment with the various compounds provide a robust readout of transport specificities.[25],[26],[29],[30],[43]
(§2) The CHO sublines were treated for 96 h with a range of drug concentrations up to 1000 nM; cell viabilities were measured with a fluorescence assay.[26] […] As a control, we used transporter-null R2 cells.[42] To extend studies to human tumor cells, we also performed experiments in RFC-, PCFT-, and FRα-expressing KB tumor cells.[44] To confirm the contribution of FR-mediated uptake to antitumor activity, for KB cells, we added 200 nM folic acid, which inhibits FR uptake by direct competition without effects on either RFC or PCFT.[25],[26],[28]−[30],[43]
(§3) The MTXRIIOua^R2-4 RFC-, PCFT-, and FRα-null Chinese hamster ovary (CHO) cell line (R2) was a gift from Dr. Wayne Flintoff (University of Western Ontario).[40],[42] Isogenic CHO cell lines were subsequently derived from R2 cells by transfection with RFC, PCFT, or FRα cDNAs to generate PC43-10 (expresses only human RFC), R2/PCFT4 (expresses only human PCFT), RT16 (expresses only human FRα), and D4 (expresses only human FRβ).[25],[26],[39]
(§4) The CHO sublines were cultured in α-minimal essential medium (α-MEM) supplemented with 100 U/mL penicillin/100 μg/mL streptomycin, 2 mM L-glutamine, and 10% bovine calf serum (Sigma-Aldrich). For the PC43-10, R2/PCFT4, RT16, and D4 sublines, 1.5 mg/mL G418 was also added. Seventy-two hours prior to in vitro proliferation assays (below), RT16 and D4 CHO cells were grown in folate-free RPMI with dialyzed fetal bovine serum (DFBS) (Invitrogen) supplemented with 100 U/mL penicillin/[…] streptomycin and 2 mM L-glutamine. FRα-expressing KB nasopharyngeal carcinoma cells were acquired from the American Type Culture Collection (Manassas, VA); cells were grown in complete folate-free RPMI 1640 supplemented with 10% fetal bovine serum, 100 U/mL penicillin/100 μg/mL streptomycin, and 2 mM L-glutamine. Cell lines were authenticated by STR analysis (Genetica DNA Laboratories, Burlington, NC) and tested for Mycoplasma by PCR (Venor GeM Mycoplasma Detection Kit, Sigma). Frozen stocks were generated from authenticated Mycoplasma-free cultures.
(§5) Cell proliferation assays used CHO and KB cells cultured in folate-free-RPMI 1640 media with 10% DFBS, 2 mM L-glutamine, and 100 U/mL penicillin/100 μg/mL streptomycin supplemented with 2 nM (KB, RT16, D4) or 25 nM (R2, PC43-10, R2/PCFT4) leucovorin.[25],[26],[30] Parallel incubations with 200 nM folic acid were performed in viability assays to confirm FR-mediated drug uptake. Cells were plated in 96-well dishes at 2500–5000 cells/well in 200 μL media and treated with a range of C1 inhibitors spanning 0 to 1 μM. Cells were treated at 37 ° C with 5% CO2, and numbers were assayed after 96 h using CellTiter-blue (Promega, Madison, WI) and a fluorescence plate reader.[25],[26]

[2] = system: RT16 CHO cells (expresses only human FRα); assay: Cell proliferation assay, RT16 CHO subline; format: cell-based, Chinese hamster
Text: as §1, §2, §3, §4, §5

human GARFTase = target: T1, human GARFTase (Homo sapiens, UniProt P22102); assay: In vitro GARFTase enzyme assay (THF formation from 10-CHOTHF); format: biochemical
T1 construct: GARFTase (formyltransferase domain; residues 808–1010); made in house; host or cells: E. coli Rosetta (DE3)pLysS
T1 sequence (P22102 808-1010): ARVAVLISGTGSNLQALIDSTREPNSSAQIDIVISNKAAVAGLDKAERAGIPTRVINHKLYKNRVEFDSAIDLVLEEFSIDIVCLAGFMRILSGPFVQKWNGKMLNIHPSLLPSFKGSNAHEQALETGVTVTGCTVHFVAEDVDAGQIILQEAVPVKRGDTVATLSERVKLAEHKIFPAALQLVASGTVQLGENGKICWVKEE
Procedure: We directly tested inhibition potencies by in vitro assays using purified GARFTase and ATIC (AICARFTase) to calculate inhibition dissociation constants (Ki’s) (Table 2).[45]
Isopropyl β-D-1-thiogalactopyranoside (500 μM) was added, and the cells were incubated at 20 °C for 16–18 h. The cultures were pelleted and resuspended in 40 mL of 25 mM Tris–HCl, pH 7.5, 300 mM NaCl, 5 mM β-mercaptoethanol (β-ME), 10 mM CaCl2, 10 mM MgCl2, 40 mg lysozyme, and 8 U DNAse I (Sigma). The cells were lysed by emulsification.
His-GARFTase was purified from the lysate by ÄKTA FPLC (GE Healthcare) with a Ni-NTA column (Qiagen, Valencia, CA).[48] The column was washed with 5 column volumes (CV) of 25 mM Tris–HCl, pH 8, 300 mM NaCl, 10% glycerol, and 5 mM β-ME. His-GARFTase was eluted with a 0 to 75% gradient of 25 mM Tris–HCl, pH 8, 300 mM NaCl, 10% glyercol, 300 mM imidazole, and 5 mM β-ME over 10 CV. Further purification involved size exclusion chromatography on a Superdex 75 16/60 (GE Healthcare) column with 25 mM Tris–HCl, pH 8, 10 mM β-ME, and 300 mM NaCl. Purified His-GARFTase was stored at 90 μM in 20% glycerol at −80 °C.
GARFTase catalytic activity was measured by monitoring THF formation from 10-CHOTHF.[32],[45],[48] […] Initial slopes were graphed against inhibitor concentrations and fit to a three-parameter nonlinear regression to calculate IC50 values for each compound (GraphPad Prism 8.0). […] Inhibition constants (Ki’s) were calculated from the IC50 values using the equation Ki = IC50/([S]/KM + 1) and the Km and substrate concentration for THF.

[3] = system: R2 (MTXRIIOuaR2-4) RFC-, PCFT-, and FRα-null CHO cells; assay: Cell proliferation assay, transporter-null R2 CHO subline; format: cell-based, Chinese hamster; conditions: Cricetulus griseus, transporter-null control cells, 96 h, up to 1000 nM, mean (standard error)
Text: as §1, §2, §3, §4, §5

[4] = system: KB human tumor cells (RFC/FRα/PCFT); assay: Cell proliferation assay, KB tumor cells (with or without 200 nM folic acid); format: cell-based; conditions: 96 h, 2 nM leucovorin, no folic acid, mean (standard error)
Procedure: as §2, §4, §5

[5] = Homo sapiens, RT16, 96 h, 2 nM leucovorin, mean (standard error)
[6] = monoglutamyl antifolates, mean (standard error), at least three replicate assays, tested up to 150 μM, read-out: GARFTase Ki
[7] = Homo sapiens, RT16; 96 h, 2 nM leucovorin; mean (standard error)

Row | SMILES | IC50 [1] | IC50 ([2]; 96 h, 2 nM leucovorin; mean (standard error)) | IC50 [2, 5] | melting point | Ki (human GARFTase; [6]) | IC50 [3] | IC50 [4] | IC50 [2, 7] | Ki (human GARFTase) | IC50 RFC PC43-10 [1] | GARFTase potency of 9 relative to 2 (human GARFTase; ratio of Ki values) | GARFTase potency of 9 relative to 10 (human GARFTase; ratio of Ki values)
1 | Nc1nc2sc(CCCCc3cccc(C(=O)N[C@@H](CCC(=O)O)C(=O)O)n3)cc2c(=O)[nH]1 [Compound 3, (6-(4-(2-Amino-4-oxo-3,4-dihydrothieno[2,3-d]pyrimidin-6-yl)butyl)picolinoyl)-L-glutamic Acid] | > 1000 nM | 24.7 nM | 25 nM | 125.8 to 126.2 °C | 26700 nM | > 1000 nM |  |  |  |  |  | 
2 | Nc1nc2sc(CCCCc3ccc(C(=O)N[C@@H](CCC(=O)O)C(=O)O)nc3)cc2c(=O)[nH]1 [Compound 4, (5-(4-(2-Amino-4-oxo-3,4-dihydrothieno[2,3-d]pyrimidin-6-yl)butyl)picolinoyl)-L-glutamic Acid] | > 1000 nM |  |  |  |  | > 1000 nM | 2.11 nM | 0.94 nM | > 150000 nM |  |  | 
3 | Nc1nc2sc(CCCCc3cnc(C(=O)N[C@@H](CCC(=O)O)C(=O)O)c(F)c3)cc2c(=O)[nH]1 [Compound 5, (5-(4-(2-Amino-4-oxo-3,4-dihydrothieno[2,3-d]pyrimidin-6-yl)butyl)-3-fluoropicolinoyl)-L-glutamic Acid] | > 1000 nM |  | 1.23 nM | 128 to 129.7 °C | 13700 nM | > 1000 nM | 5.05 nM |  |  |  |  | 
4 | Nc1nc2sc(CCCc3ccc(C(=O)N[C@@H](CCC(=O)O)C(=O)O)c(F)c3)cc2c(=O)[nH]1 [Compound 6, (4-(3-(2-Amino-4-oxo-3,4-dihydrothieno[2,3-d]pyrimidin-6-yl)propyl)-2-fluorobenzoyl)-L-glutamic Acid] | > 1000 nM |  | 1.07 nM | 128 to 129.8 °C | > 150000 nM | > 1000 nM | 7.19 nM |  |  |  |  | 
5 | Nc1nc2sc(CCCCc3ccc(C(=O)N[C@@H](CCC(=O)O)C(=O)O)c(F)c3)cc2c(=O)[nH]1 [Compound 7, (4-(4-(2-Amino-4-oxo-3,4-dihydrothieno[2,3-d]pyrimidin-6-yl)butyl)-2-fluorobenzoyl)-L-glutamic Acid] | > 1000 nM |  | 2.27 nM | 121.7 to 122.6 °C | > 150000 nM | > 1000 nM | 5.27 nM |  |  |  |  | 
6 | Nc1nc2sc(CCCc3csc(C(=O)N[C@@H](CCC(=O)O)C(=O)O)c3F)cc2c(=O)[nH]1 [Compound 8, (4-(3-(2-Amino-4-oxo-3,4-dihydrothieno[2,3-d]pyrimidin-6-yl)propyl)-3-fluorothiophene-2-carbonyl)-L-glutamic Acid] | 560 nM |  | 1.96 nM |  | 3100 nM | > 1000 nM | 6.84 nM |  |  | slight inhibition |  | 
7 | Nc1nc2sc(CCCCc3csc(C(=O)N[C@@H](CCC(=O)O)C(=O)O)c3F)cc2c(=O)[nH]1 [Compound 9, (4-(4-(2-Amino-4-oxo-3,4-dihydrothieno[2,3-d]pyrimidin-6-yl)butyl)-3-fluorothiophene-2-carbonyl)-L-glutamic Acid] | > 1000 nM |  |  | 142.3 to 143.5 °C |  | > 1000 nM | 2.63 nM | 1.29 nM | 170 nM |  | 17 fold | 25 fold
